# From patent US20120029038A1, “ANIMAL ECTOPARASITE-CONTROLLING AGENT” (SUMITOMO CHEMICAL COMPANY, LIMITED, priority 2010, published 2012)
# Experiments:
# Format in all cases: in vivo
# [1] = tested on: ticks (Haemaphysalis longicornis); test: Pesticidal activity on ticks in filter paper test; conditions: 48 h, 100 mg/m^2, non-blood-fed young ticks, 2 days later
# Protocol: Each (5 mg) of the present hydrazide compounds (1), (3) to (5), (8), (10) and (13) was dissolved in acetone (10 mL), and this acetone solution (1 mL) was uniformly applied onto one side of a filter paper (TOYO No. 2; 5×10 cm; the surface area of the filter paper was 50 cm^2, and thus the amount of the present hydrazide compound applied was 100 mg/m^2). After drying, said filter paper was folded, and the both sides of the paper were clipped to form a bag. Into this bag, test ticks (Haemaphysalis longicornis, non-blood-fed young ticks, 10 ticks/group) were added, and the opening was clipped to seal the bag. Two (2) days later, the number of dead ticks was examined and the mortality was calculated by the following formula:
# Mortality(%)=100×(number of dead ticks/number of ticks tested)
# [2] = tested on: cat fleas (Ctenocephalides felis); test: Oral administration against cat-infested cat fleas; conditions: oral with cat food
# Protocol: The previous day before oral administration, 50 test fleas (cat flea adults) were deposited on a cat. Before the oral administration, infested fleas were counted.
# Each of the present hydrazide compounds (5) and (8) was mixed with a cat food, and orally administered to a cat in a dose amount of 5 or 20 mg per 1 kg of the cat's body weight. This is referred to as a test group. On the other hand, the cat food alone was fed to a placebo group.
# Two (2) days after the administration, the number of living fleas, which were infesting the cats, was examined. When the examination was completed, all infested fleas were removed from the cats.
# (§1) Forty two (42) days later, 50 test fleas were re-deposited on each cat. Two (2) days after the re-deposit, the number of living fleas, which were infesting the cats, was examined. When the examination was completed, all infested fleas were removed from the cats. The infestation rate and control rate were calculated by the following formulae: […]
# (i) Method of calculating infestation rate and control rate at the initial stage (2 days) after the administration:
# Infestation rate(%) at X days after administration=(number of living fleas at X days/number of living fleas before administration)×100
# Control rate(%) at X days after administration (infestation rate of test group before administration−infestation rate of test group at X days)/infestation rate of test group before administration×100
# (ii) Method of calculating infestation rate and control rate at 44 days after the administration:
# Infestation rate(%) at X days after administration=(number of living fleas at X days/number of fleas deposited)×100
# Control rate(%) at X days after administration (infestation rate of placebo group at X days−infestation rate of test group at X days)/infestation rate of placebo group at X days×100
# (§2) In addition, if an infestation rate of a test group is higher than a placebo group, then the control rate is deemed to be 0%.
# [3] = tested on: cat fleas (Ctenocephalides felis); test: Dropping application against cat-infested cat fleas
# Protocol: The previous day before dropping application, 50 test fleas (cat flea adults) were deposited on a cat. Before the dropping application, infested fleas were counted.
# Each (0.375 g or 1.5 g) of the present hydrazide compounds (5) and (8) and Comparative compound (52) was dissolved in diethylene glycol monoethyl ether (6.0 g) to prepare a test solution. Said test solution was directly dropped on the skin of the neck and back of the cat while pushing aside fur thereon on at a rate of 0.1 ml per 1 kg of the cat's body weight (dose amount: 5 or 20 mg/kg). This is referred to as a test group. On the other hand, diethylene glycol monoethyl ether alone was applied dropwise to a placebo group.
# Two (2) days after the application, the number of living fleas, which were infesting the cats, was examined. When the examination was completed, all infested fleas were removed from the cats.
# as §1, with “Fourteen (14) days and 28” for “Forty two (42)”
# (§3) (i) Method of calculating infestation rate and control rate at the initial stage (2 days) after the application:
# Infestation rate(%) at X days after application=(number of living fleas at X days/number of living fleas before application)×100
# (§4) Control rate(%) at X days after application=(infestation rate of test group before application−infestation rate of test group at X days)/infestation rate of test group before application×100
# (§5) (ii) Method of calculating infestation rate and control rate at 16 days and 30 days after the application:
# Infestation rate(%) at X days after application−(number of living fleas at X days/number of fleas deposited)×100
# (§6) Control rate(%) at X days after the application (infestation rate of placebo group at X days−infestation rate of test group at X days)/infestation rate of placebo group at X days×100
# as §2
# [4] = tested on: ticks (Haemaphysalis longicornis); test: Dropping application against dog-infested ticks; conditions: dog (beagle), 20 mg/kg
# Protocol: The previous day before dropping application, 100 test ticks (Haemaphysalis longicornis, young ticks) were deposited on a dog (beagle). Before the dropping application, infested ticks were counted.
# Each (1.5 g) of the present hydrazide compounds (5) and (8) was dissolved in diethylene glycol monoethyl ether (6.0 g) to prepare a test solution. Said test solution was directly dropped on the skin of the neck and back of the dog while pushing aside fur thereon at a rate of 0.1 ml per kg of the dog's body weight (dose amount: 20 mg/kg). This is referred to as a test group. On the other hand, diethylene glycol monoethyl ether alone was applied dropwise to a placebo group.
# Two (2) days after the application, the number of living ticks, which were infesting the dogs, was examined. When the examination was completed, all infested ticks were removed from the dogs.
# (§7) Fourteen (14) days and 28 days later, 100 test ticks were re-deposited on each dog. Two (2) days after the re-deposit, the number of living ticks, which were infesting the dogs, was examined. When the examination was completed, all infested ticks were removed from the dogs. The infestation rate and control rate were calculated by the following formulae: […]
# as §3
# Infestation rate(%) at X days after application=(number of living ticks at X days/number of living ticks before application)×100
# as §4, §5
# Infestation rate(%) at X days after application=(number of living ticks at X days/number of ticks deposited)×100
# as §6, §2
# [5] = tested on: ticks (Haemaphysalis longicornis); test: Oral administration against dog-infested ticks; conditions: oral gelatin capsules, 20 mg/kg
# Protocol: Each of the present hydrazide compounds (5) and (8) and Comparative compound (52) was filled into gelatin capsules, and forcibly and orally administered to a dog in a dose amount of 20 mg per 1 kg of the dog's body weight. This is referred to as a test group. On the other hand, gelatin capsules alone were orally administered to a placebo group.
# as §7, with “Forty two (42)” for “Fourteen (14) days and 28”, “deposited” for “re-deposited”, “deposit,” for “re-deposit,”
# Method of calculating infestation rate and control rate at 44 days after the administration:
# Infestation rate(%) at X days after administration=(number of living ticks at X days/number of ticks deposited)×100
# Control rate(%) at X days after administration (infestation rate of placebo group at X days−infestation rate of test group at X days)/infestation rate of placebo group at X days[…]
# as §2
# [6] = tested on: cat fleas (Ctenocephalides felis); test: Dropping application against mouse-infested cat fleas; conditions: 0.5% w/v solution 200 μL dropwise along dorsal line, 2 days later
# Protocol: The present hydrazide compound (8) (25 mg) was dissolved in propylene carbonate (5 mL) to prepare a 0.5% w/v solution. Said solution (200 μL) was applied dropwise along the dorsal line of a mouse with a pipette. To a control group, propylene carbonate (200 μL) alone was applied. Each application was repeated 3 times per group.
# After the dropping application, 20 cat fleas were deposited on each mouse. Two (2) days later, the number of dead cat fleas was examined and the mortality was calculated by the following formula:
# (§8) Mortality(%)=100×(number of dead cat fleas/number of cat fleas tested)
# [7] = tested on: cat fleas (Ctenocephalides felis); test: Pesticidal activity on cat fleas in filter paper test; conditions: 48 h
# Protocol: Each (11.3 mg) of the present hydrazide compounds (5) and (8) was dissolved in acetone (5 mL), and this acetone solution ([…]) was uniformly applied onto one side of a filter paper (TOYO No. 2; diameter 3.8 cm; the surface area of the filter paper was 11.3 cm^2, and thus the amount of the present hydrazide compound applied was 400 mg/m^2). After drying, said filter paper was placed on the inside of the lid of a 100 mL vial container. Into the vial container, 20 cat flea adults were released and the lid was closed. The vial container was inverted to force the cat fleas to contact the filter paper. Two (2) days later, the number of dead fleas was examined and the mortality was calculated by the following formula:
# as §8
smiles,measurement,setting,value
"O=C(CC(F)(F)F)NNc1cccc(C2=NOC(c3cc(Cl)cc(Cl)c3)(C(F)(F)F)C2)c1 (stereo not drawn) [(1), N′-{3-[5-(3,5-dichlorophenyl)-5-trifluoromethyl-4,5-dihydroisoxazol-3-yl]phenyl}-3,3,3-trifluoropropionohydrazide]",mortality at 100 mg/m2,[1],≥ 90%
"CCc1ccc(C2=NOC(c3cc(Cl)cc(Cl)c3)(C(F)(F)F)C2)cc1NNC(=O)CC(F)(F)F (stereo not drawn) [(13), N′-{5-[5-(3,5-dichlorophenyl)-5-trifluoromethyl-4,5-dihydroisoxazol-3-yl]-2-ethylphenyl}-3,3,3-propionohydrazide]",mortality at 100 mg/m2,[1],≥ 90%
"O=C(CC(F)(F)F)NNc1cc(C2=NOC(c3cc(Cl)cc(Cl)c3)(C(F)(F)F)C2)ccc1F (stereo not drawn) [(3), N′-{5-[5-(3,5-dichlorophenyl)-5-trifluoromethyl-4,5-dihydroisoxazol-3-yl]-2-fluorophenyl}-3,3,3-trifluoropropionohydrazide]",mortality at 100 mg/m2,[1],≥ 90%
"O=C(CCCC(F)(F)F)NNc1cc(C2=NOC(c3cc(Cl)cc(Cl)c3)(C(F)(F)F)C2)ccc1Cl (stereo not drawn) [(10), N′-{2-chloro-5-[5-(3,5-dichlorophenyl)-5-trifluoromethyl-4,5-dihydroisoxazol-3-yl]phenyl}-5,5,5-trifluoropentanohydrazide]",mortality at 100 mg/m2,[1],≥ 90%
"CN(NC(=O)CCC(F)(F)F)c1cc(C2=NOC(c3cc(Cl)cc(Cl)c3)(C(F)(F)F)C2)ccc1Cl (stereo not drawn) [Compound (8), N′-methyl-N′-{2-chloro-5-[5-(3,5-dichlorophenyl)-5-trifluoromethyl-4,5-dihydroisoxazol-3-yl]phenyl}-4,4,4-trifluorobutyrohydrazide]",Flea control rates (%) at 2 days after the administration,[2]; 5 mg/kg,100%
same,Flea control rates (%) at 44 days after the administration,[2]; 5 mg/kg,90%
same,Flea control rates (%) at 2 days after the administration,[2]; 20 mg/kg,100%
same,Flea control rates (%) at 44 days after the administration,[2]; 20 mg/kg,100%
same,Flea control rates (%) at 2 days after the application,[3]; 5 mg/kg,100%
same,Flea control rates (%) at 16 days after the application,[3]; 5 mg/kg,100%
same,Flea control rates (%) at 30 days after the application,[3]; 5 mg/kg,97%
same,Flea control rates (%) at 2 days after the application,[3]; 20 mg/kg,100%
same,Flea control rates (%) at 16 days after the application,[3]; 20 mg/kg,100%
same,Flea control rates (%) at 30 days after the application,[3]; 20 mg/kg,100%
same,Tick control rates (%) at 2 days after the application,[4],31%
same,Tick control rates (%) at 16 days after the application,[4],100%
same,Tick control rates (%) at 30 days after the application,[4],100%
same,Tick control rates (%) at 44 days after the administration,[5],93%
same,Mortality,[6],≥ 70%
same,mortality at 400 mg/m2,[7],≥ 90%
"O=C(CCC(F)(F)F)NNc1cc(C2=NOC(c3cc(Cl)cc(Cl)c3)(C(F)(F)F)C2)ccc1Cl (stereo not drawn) [Compound (5), N′-{5-[5-(3,5-dichlorophenyl)-5-trifluoromethyl-4,5-dihydroisoxazol-3-yl]-2-chlorophenyl}-4,4,4-trifluorobutyrohydrazide]",Flea control rates (%) at 2 days after the administration,[2]; 5 mg/kg,100%
same,Flea control rates (%) at 44 days after the administration,[2]; 5 mg/kg,81%
same,Flea control rates (%) at 2 days after the administration,[2]; 20 mg/kg,100%
same,Flea control rates (%) at 44 days after the administration,[2]; 20 mg/kg,100%
same,Flea control rates (%) at 2 days after the application,[3]; 5 mg/kg,83%
same,Flea control rates (%) at 16 days after the application,[3]; 5 mg/kg,100%
same,Flea control rates (%) at 30 days after the application,[3]; 5 mg/kg,97%
same,Flea control rates (%) at 2 days after the application,[3]; 20 mg/kg,100%
same,Flea control rates (%) at 16 days after the application,[3]; 20 mg/kg,100%
same,Flea control rates (%) at 30 days after the application,[3]; 20 mg/kg,100%
same,Tick control rates (%) at 2 days after the application,[4],51%
same,Tick control rates (%) at 16 days after the application,[4],100%
same,Tick control rates (%) at 30 days after the application,[4],100%
same,Tick control rates (%) at 44 days after the administration,[5],89%
same,mortality at 400 mg/m2,[7],≥ 90%
"CC(=O)NNc1cc(C2=NOC(c3cc(Cl)cc(Cl)c3)(C(F)(F)F)C2)ccc1Cl (stereo not drawn) [Comparative compound (52), N′-{5-[5-(3,5-dichlorophenyl)-5-trifluoromethyl-4,5-dihydroisoxazol-3-yl]-2-chlorophenyl}acetohydrazide, reference compound]",Flea control rates (%) at 2 days after the application,[3]; 5 mg/kg,25%
same,Flea control rates (%) at 16 days after the application,[3]; 5 mg/kg,87%
same,Flea control rates (%) at 30 days after the application,[3]; 5 mg/kg,58%
same,Tick control rates (%) at 44 days after the administration,[5],74%
